One assay addresses streptavidin (Streptomyces avidinii, UniProt P22629). Nature of the assay: SPR of streptavidin binding to maleimide SAM treated with biotinylated model peptides. As to conditions: SAM presenting maleimide at 2%, then streptavidin. The source says: Michael acceptor-derivatized surfaces like that depicted in FIG. 1 are well adapted for selectively immobilizing and orienting functional organic molecules for such uses as biosensors, high throughput assays, binding assays, enzymatic assays and cell cultures. […] Surface binding was detected using biotinylated, cysteine-containing peptides and streptavidin. SAMs presenting the maleimide group at a density of 2% were applied to gold-coated coverslips according to the Examples. The SAM coated coverslips were each treated with solutions containing various reactive molecules dissolved in phosphate buffer (pH 6), and the reactivity of the surface was characterized by flowing the protein streptavidin, which selectively binds biotin, over the SAM. Streptavidin binding was quantitated by surface plasmon resonance.
Referring to FIG. 3, sensorgram (A), the SAM-coated coverslip was treated with a solution of the model biotinylated peptide biotin-NH-Arg-Asp-Cys-CONH2 (1.2 mM) for 12 minutes. 2280 RU of streptavidin binding was observed. Sensorgram (B) was obtained using a solution containing a mixture of the model peptide (0.6 mM) and lysine (16 mM). […]
SPR was performed with a Biacore 3000 instrument. Gold-coated glass microscope cover glass presenting SAMs to be analyzed were mounted in SPR cartridges. […]

The nature of assay [1]: SPR of biospecific-covalent attachment of cutinase-fusion protein to PNPP-terminated surfaces. The assay is classed as binding. As for the experimental part:
A gold chip that presents 1.5% maleimide groups in a background of EG3 was exposed to a 5 mM methanolic solution of (8-mercapto-octyl)-phosphonic acid ethyl ester 4-nitro-phenyl ester—the bifunctional molecule (compound 5; HS-PNPP)—for 1 hour. During this process the thiol group of HS-PNPP reacts with the maleimide groups at the surface and results in 1.5% of a monolayer of the PNPP ligand being presented at the surface.
The chip created above was then loaded into the SPR machine that contacts a microfluidic manifold to the gold chip to allow different solutions to be delivered to the surface in up to 4 flow channels. The following fluidic protocol was then applied to the surface and the SPR signal—which measures the mass of protein that adsorbs to the surface—was measured as a function of time:
t=0 to 300 s. Flow channels 1-3 (Fc=1 to 3) were all exposed to 20 mM tris (pH 7.4) buffer t=300 to 1500 s. Fc=1 to 3 were then exposed to 3 different solutions: Fc=1: 500 ug/mL fibrinogen in 20 mM tris (pH 7.4) buffer Fc=2: 40 microM of cutinase fused to hexahistidine (cutinase-his6) in 20 mM tris buffer Fc=3: 40 microM of cutinase-his6 pre-mixed with 100 microM of PNPP t=1500 to 2250 s. Fc=1 to 3 were all exposed to 20 mM tris (pH 7.4) buffer t=2250 to 2850 s. Fc=1 to 3 were all exposed to 8 mM SDS in 20 mM tris (pH 7.4) buffer t>2850 s. Fc=1 to 3 were all exposed to 20 mM tris (pH 7.4) buffer

Assay [2] is described as follows: SPR of protein adsorption on biotin-presenting maleimide/EG3 mixed SAM surface (specific binding and NSB). As for the experimental part: FIG. 4 is a surface plasmon resonance sensorgram of a SAM presenting maleimide at a density of 2%. The SAM-coated coverslip was treated with the biotinylated, thiol-containing, model peptide biotin-NH-Arg-Asp-Cys-CONH2 (1.2 mM) for 12 minutes. Afterwards, a solution of the “sticky” protein fibrinogen (0.5 mg/mL) was flowed over the surface. Only 60 RU of adsorption was observed. Another coverslip was treated with the model peptide solution and then treated with streptavidin that had been pre-incubated with biotin.
A gold chip that presents 1.5% maleimide groups in a background of EG3 was loaded into an SPR machine (Biacore 3000). Two flow channels over this chip were simultaneously exposed to cysteine-biotin that reacts with the maleinide in order to present 1.5% biotin at the surface. Subsequently, one channel was exposed to 70 ug/mL of streptavidin and then one channel was exposed to 500 ug/mL of fibrinogen.
SPR was performed with a Biacore 3000 instrument. Gold-coated glass microscope cover glass presenting SAMs to be analyzed were mounted in SPR cartridges. All experiments used a flow rate of 10 μL/min.

For assay [3], the target named is T1, β1,4-galactosyltransferase (Bos taurus, UniProt P08037).
T1 sequence (P08037 1-402): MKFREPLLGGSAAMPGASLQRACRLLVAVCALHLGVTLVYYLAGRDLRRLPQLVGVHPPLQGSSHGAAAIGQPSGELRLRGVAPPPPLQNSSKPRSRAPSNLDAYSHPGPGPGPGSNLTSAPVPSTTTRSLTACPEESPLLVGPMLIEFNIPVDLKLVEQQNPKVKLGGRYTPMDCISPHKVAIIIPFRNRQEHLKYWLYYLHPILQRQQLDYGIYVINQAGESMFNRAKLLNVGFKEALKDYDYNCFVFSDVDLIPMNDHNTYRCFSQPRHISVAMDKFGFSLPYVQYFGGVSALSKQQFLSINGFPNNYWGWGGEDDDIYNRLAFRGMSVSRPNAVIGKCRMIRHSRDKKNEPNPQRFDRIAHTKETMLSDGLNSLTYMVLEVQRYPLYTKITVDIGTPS
Nature of the assay: Glycosyltransferase assay on immobilized carbohydrates (UDP [14C] galactose, phosphorimaging). The assay is classed as biochemical, bovine. The following applies: three immobilized carbohydrate substrates; UDP [^14C] galactose 3.5 μM. As for the experimental part:
FIG. 12 depicts the results of a Glycosyltransferase assay. The surface comprises three different carbohydrate substrates defined by columns and a control column (no substrate). Each row was reacted with a different concentration of β1,4-galactosyltransferase and a constant concentration of sugar donor (UDP [^14C] galactose, 3.5 μM). The reaction was detected by phosphorimaging.
Referring to FIG. 12, in the glycosyltransferase assay, various carbohydrates were immobilized using a thiol chemical tag to bond to a monolayer thiolate bearing a maleimide group. A glycosyltransferase enzyme was added to the immobilized carbohydrates. The ability of the enzyme to add radioactively labeled sugars to the immobilized carbohydrates was measured. In the glycosyltransferase assay the enzyme that was employed is bovine recombinant β1,4-galactosyltransferase. Preferably, the enzyme is at a concentration of about 10 pM to about 100 uM. More preferably, the enzyme is at a concentration of about 100 pM to about 1 uM.
Detection of glycosylation of the immobilized carbohydrate substrates on the base plate was performed radiometrically. The incorporation of ^14C was quantified by exposing a storage phosphor screen to the plate and then imaging it on a Variable Mode Imager (Typhoon 8600; Molecular Dynamics, Sunnyvale, Calif.). […]

Assay [4] in a line: SPR of immobilization of cutinase to SAM terminated in phosphonate binding partner. As to conditions: PBS pH 7.4; not removed by SDS 0.5 mg/mL. As for the experimental part:
A self-assembled monolayer (SAM) terminated in a phosphonate binding partner moiety was prepared. The ligand was present at a low density mixed with tri(ethylene glycol) groups, which resist non-specific protein adsorption. The immobilization of cutinase to the monolayer was characterized by SPR spectroscopy. Phosphate buffered saline (pH 7.4) was flowed over the monolayer for 2 min to establish a baseline, followed by a solution of protein in the same buffer for 10 min to observe binding. Finally, the protein solution was replaced with buffer for 6 min to quantitate the amount of protein that was irreversibly immobilized.

In the case of biotin-NH-Arg-Asp-Lys-CONH2, the “streptavidin binding” value at streptavidin (peptide 4 mM for 12 minutes) was “no streptavidin binding”. In the case of “cutinase-his6: cutinase fused to hexahistidine”, in assay [1] (Fc=2, 40 microM in 20 mM tris buffer), the protein immobilized is 1150 RU. For the same substance, the “protein immobilized after SDS wash” value in assay [1] (Fc=2, after 8 mM SDS wash) worked out at 1080 RU. Moreover, in assay [1] (Fc=3, 40 microM pre-mixed with 100 microM PNPP), the “adsorption after preincubation with PNPP” value is 30 RU.

With fibrinogen, the “non-specific binding to PNPP surface” value in assay [1] (Fc=1, 500 ug/mL fibrinogen) is recorded as “did not stick to this surface”. The “signal change caused by adsorption (NSB)” value in assay [2] (1.5% maleimide in EG3 reacted with cysteine-biotin, 500 ug/mL fibrinogen) came out at 90 RU. Moreover, in assay [2] (SAM 2% maleimide treated with biotin-NH-Arg-Asp-Cys-CONH2, fibrinogen 0.5 mg/mL), the “adsorption (non-specific)” value came to 60 RU. For the substance “streptavidin: protein which selectively binds biotin”, the “signal change caused by adsorption” value in assay [2] (1.5% maleimide in EG3 reacted with cysteine-biotin, 70 ug/mL streptavidin) worked out at 2100 RU. For the substance GlcNAc, in assay [3], the “substrate for the enzyme” value was “only the immobilized GlcNAc was a substrate”. Consider “Cutinase: recombinant Fusarium solani pisi cutinase expressed in E. coli”, for which the “binding to phosphonate monolayer” value in assay [4] is “bound irreversibly to the surface”.

At streptavidin (peptide 1.2 mM for 12 minutes), biotin-NH-Arg-Asp-Cys-CONH2 yielded a streptavidin binding of 2280 RU.
